One compound from patent US20150191484A1, “NOVEL COMPOUNDS HAVING A TETRACYCLIC IRIDOID SKELTON AND AN ANTI-TRYPANOSOMAL AGENT COMPRISING THE SAME AS AN ACTIVE INGREDIENT” (NATIONAL UNIVERSITY CORPORATION TOKYO MEDICAL AND DENTAL …, priority 2014, published 2015) can be followed below.

For the experiment, the system named is GUTat 3.1 strain of the bloodstream forms of T. b. brucei parasites. The experiment is described as follows: Alamar Blue assay (trypanocidal activity). In kind it is cell-based, Trypanosoma brucei brucei. The method, then: The GUTat 3.1 strain of the bloodstream forms of T. b. brucei parasites was used for this study. Parasites were cultured in vitro according to the conditions established by Yabu et al, 1998.
Parasites were used when they reached a confluent concentration of 1×10^6 parasites/ml. Estimation of parasitemia was done with the Neubauer's counting chamber. Parasites were diluted to a concentration of 3×10^5 parasites/ml with HMI-9 medium and used for the various experiments.
The Alamar Blue assay was carried out in a 96-well plate. About 1.5×10^4 Parasites were seeded with varied concentrations of the Morinda lucida crude extract, ranging from as low as 0.78 μg/ml to as high as 200 μg/ml, in a ratio of 1:1 in 100 μl volume per well. Berberine, a compound known as anti-trypanocidal agent, was used as a positive control. […] The parasites were incubated with the plant extracts for 24 hours at 37° C. and under 5% CO2. After 24 hours, 10% Alamar Blue dye was added to each well and re-incubated for another 24 hours under the same conditions but in darkness. After a total of 48 hours, the plate was read for absorbance at 540 nm using the TECAN Sunrise Wako Spectrophotometer. An Absorbance-concentration (extract) curve was drawn and the IC50 value of the plant extract was extrapolated. Alamar Blue assay was also performed on the fractions and compounds purified from Morinda Lucida to determine their IC50 values. The IC50 values obtained were compared with that of the positive control and trypanocidal activity determined.
For orientation: The colour change of resazurin is a common sign of viable cells or microbes.

Regarding `COc1cc(/C=C2/C(=O)O[C@]34C=C[C@@H]5C(C(=O)O)=CO[C@H](O[C@@H]23)[C@@H]54)ccc1O` [ML-2-3, (3aS,4aR,4a^1S,7aS,9aS,3E)-3-(4-hydroxy-3-methoxybenzylidene)-2-oxo-2,3,3a,4a,4a^1,7a-hexahydro-1,4,5-trioxadicyclopenta[a,hi]indene-7-carboxylic acid], under “T. b. brucei, Alamar Blue, 48 h, read-out: IC50 of anti-trypanosomal activity”, the IC50 (usually the concentration that inhibits the measured activity by half) was 3.75 µM. Moreover, the “inhibition of the growth of Trypanosoma brucei brucei (in words)” value (in vitro) was “the most potent in vitro activity”.
